In patent US10772836B2, “Method for producing particles” (RICOH COMPANY, LTD., priority 2016, dated 2020):

What was measured:
[1] = Oral absorbability of […], blood drug concentration after oral administration (Test Example 6); format: in vivo; settings: rat, plasma, male SD rats, single oral dose 10 mg/kg in terms of […]
Experimental: In order to evaluate an oral absorbability of the pharmaceutical particles produced in Example 2, the pharmaceutical particles of Example 2 and […] bulk powder were orally administrated to male SD rats (from 6 to 8 week-old, available from Japan SLC, Inc.) and then blood drug concentrations were measured over time. Each powder was suspended in water and administrated through a single-dose forced oral administration to the male SD rats at 10 mg/kg in terms of […]. After the oral administration, blood was collected from tail veins over time, transferred to heparinized micro test tubes, and cooled with ice immediately. After the cooling, the blood was rapidly centrifuged to obtain blood plasma. The resultant blood plasma was quantified by an ultra-high performance liquid chromatography (available from Waters) equipped with, as a detector, a single quadrupole mass spectrometer (ACQUITY SQD, available from Waters).

[2] = Evaluation test for dissolution property in intrapulmonary-environment imitating liquid (Test Example 7); format: physicochemical; settings: 37 degrees Celsius, 30 spm
Experimental: Ten milligrams of the pharmaceutical particles were added to 100 mL of an intrapulmonary-environment imitating liquid (0.169 g of magnesium chloride, 5.016 g of sodium chloride, 0.249 g of potassium chloride, 0.059 g of anhydrous sodium sulfate, 0.306 g of calcium chloride dehydrate, 0.794 g of sodium acetate trihydrate, 2.170 g of sodium hydrogen carbonate, 0.080 g of sodium citrate dehydrate, 0.118 g of disodium hydrogen-phosphate, and 0.167 g of dipalmitoylphosphatidylcholine in 1 L of water). […] Thus, the “dissolution property” was evaluated.

[3] = system: blood calcium concentration; assay: Drug efficacy after transpulmonary administration, blood calcium concentration (Test Example 9); format: in vivo; settings: male SD rats, transpulmonary 40 micrograms/animal in terms of CALCITONIN, time zero = 100%
Experimental: A powder preparation prepared using the pharmaceutical particles of Example 3 was evaluated for a drug efficacy after transpulmonary administration. The powder preparation was prepared by mixing the pharmaceutical particles of Example 3 with lactose (average particle diameter: 50 micrometers, RESPITOSE, available from DMV Japan) in an amount of 5 times as much as the amount of the pharmaceutical particles. The powder preparation was transpulmonary administrated (40 micrograms/animal in terms of CALCITONIN) to male SD rats (from 6 to 8 week-old, available from Japan SLC, Inc.) and then a blood calcium concentration after the administration was measured over time. As a control group, a simply mixed powder was prepared by molding a mixture of CALCITONIN bulk powder and lactose. The CALCITONIN has a pharmacological action of decreasing the blood calcium concentration. Therefore, the blood calcium concentration was selected as an indicator for evaluating the drug efficacy of the pharmaceutical particles of Example 3. The pharmaceutical particles were transpulmonary administrated by inserting an inhaler (DP-4, available from Ina Research Inc.) into the airway under inhalation anesthesia with isoflurane and feeding compressed air. A time point immediately before the transpulmonary administration was defined as time zero. Change in blood calcium concentration over time was evaluated assuming that a blood calcium concentration at the time zero was 100%. The blood calcium concentration was measured using a METALLOASSAY calcium (Ca) measurement LS kit CPZIII (available from Metallogenics Co., Ltd.).

What does the source list for `COc1ccc(/C=C/C(=O)Nc2ccccc2C(=O)O)cc1OC` [Tranilast]?
bioavailability [1]: 1.2%; AUC(0-inf) [1]: 800 ± 400 ng·h/mL; Cmax [1]: 100 ng/mL; Tmax [1]: 1.8 ± 0.7 h; half-life [1]: 2.9 ± 0.7 h

With Calcitonin [Calcitonin bulk powder] as the molecule, how does the Dissolution amount ([2]; time 0 hour) read?
The Dissolution amount was 0 µg/mL.

What about the Dissolution amount ([2]; time 0.25 hour) of the same molecule?
Its Dissolution amount is 9.56 ± 0.03 µg/mL.

And the Dissolution amount ([2]; time 0.5 hour)?
Its Dissolution amount is 9.88 ± 0.13 µg/mL.

What about the Dissolution amount ([2]; time 1 hour) of the same molecule?
Its Dissolution amount is 9.68 ± 0.20 µg/mL.

And the Dissolution amount ([2]; time 2 hour)?
The Dissolution amount was 9.09 ± 0.04 µg/mL.

And the Dissolution amount ([2]; time 4 hour)?
The Dissolution amount was 9.01 ± 0.44 µg/mL.

And the Dissolution amount ([2]; time 6 hour)?
The Dissolution amount was 9.39 ± 0.14 µg/mL.

And the Dissolution amount ([2]; time 12 hour)?
The Dissolution amount was 8.59 ± 0.15 µg/mL.

And the Dissolution amount ([2]; time 60 hour)?
Its Dissolution amount is 8.63 ± 0.02 µg/mL.

What about the Blood calcium concentration ([3]; time 0 h) of the same molecule?
The Blood calcium concentration was 100%.

And the Blood calcium concentration ([3]; time 0.25 h)?
The Blood calcium concentration was 81.7 ± 11.6%.

And the Blood calcium concentration ([3]; time 0.5 h)?
The Blood calcium concentration was 74.6 ± 0.9%.

What about the Blood calcium concentration ([3]; time 1 h) of the same molecule?
The Blood calcium concentration was 81.1 ± 10.1%.

What about the Blood calcium concentration ([3]; time 2 h) of the same molecule?
The Blood calcium concentration was 79.5 ± 7.1%.

And the Blood calcium concentration ([3]; time 4 h)?
Its Blood calcium concentration is 96.7 ± 5.1%.

What about the Blood calcium concentration ([3]; time 6 h) of the same molecule?
Its Blood calcium concentration is 99.1 ± 12.6%.

And the Blood calcium concentration ([3]; time 8 h)?
Its Blood calcium concentration is 102.1 ± 15.9%.

What about the Blood calcium concentration ([3]; time 12 h) of the same molecule?
Its Blood calcium concentration is 104.3 ± 13.8%.

What about the Blood calcium concentration ([3]; time 24 h) of the same molecule?
Its Blood calcium concentration is 110.9 ± 5.5%.
